Reference: patent publication US8859777B2, “4-fluoro-4-arylpiperdin-1-yl derivatives as mu opioid function moderators” (priority 2010, dated 2014)
Structures can show the parent of a compound that is named as a salt. Where two headings read alike, the source gives them in different places.

Biological target: T1, Mu opioid receptor (Homo sapiens, UniProt P35372)
T1 construct: expressed in transfected cells; host or cells: HEK-293
Assay: Affinity for the Mu opioid receptor, [3H]diprenorphine radioligand binding
Method: Compounds of the invention were assayed for affinity for the Mu opioid receptor using the methodology described in Zhang et al. (J. Pharmacol. Exp. Ther., (1998) 286: 136-141). Compounds were assessed in human recombinant (HEK-293) cells using tritium labeled diprenorphine (0.4 nM) as the specific determinant and non-specific binding was assayed with naltrexone (1 μM). Cells were incubated for 120 minutes at 22° C. before isolation and radioactivity determination by scintillation counting. The IC50 values (concentration causing a half-maximal inhibition of control specific binding) and Hill coefficients (nH) were determined by non-linear regression analysis of the competition curves generated with mean replicate values using Hill equation curve fitting (Y=D+[(A−D)/(1+(C/C50)^nH)], where Y=specific binding, D=minimum specific binding, A=maximum specific binding, C=compound concentration, C50=IC50, and nH=slope factor). The inhibition constants (Ki) were calculated using the Cheng-Prusoff equation (Ki=IC50/(1+(L/KD)), where L=concentration of radioligand in the assay, and KD=affinity of the radioligand for the receptor). Each data point was obtained in duplicate and results are the mean value.

[1] = human recombinant (HEK-293) cells, tritium labeled diprenorphine 0.4 nM, non-specific binding with naltrexone 1 μM, 120 minutes at 22° C., mean of duplicates, read-out: Affinity

T1 sequence (P35372 whole entry): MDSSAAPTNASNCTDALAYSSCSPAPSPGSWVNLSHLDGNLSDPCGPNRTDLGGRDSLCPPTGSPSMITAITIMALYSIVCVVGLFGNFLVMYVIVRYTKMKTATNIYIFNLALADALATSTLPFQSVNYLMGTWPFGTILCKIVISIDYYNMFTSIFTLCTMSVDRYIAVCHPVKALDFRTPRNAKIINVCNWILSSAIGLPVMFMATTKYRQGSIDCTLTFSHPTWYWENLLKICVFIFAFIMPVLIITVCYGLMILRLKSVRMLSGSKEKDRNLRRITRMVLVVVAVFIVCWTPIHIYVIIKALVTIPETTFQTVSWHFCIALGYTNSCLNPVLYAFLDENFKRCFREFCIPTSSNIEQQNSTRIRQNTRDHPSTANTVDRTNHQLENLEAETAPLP

Structure (SMILES)	Ki [1]	Ki
CS(=O)(=O)Nc1cccc(C2(F)CCN(CCOc3ccccc3)CC2)c1 [Example 18, N-{3-[4-Fluoro-1-(2-phenoxyethyl)piperidin-4-yl]phenyl}methane-sulfonamide Hydrochloride]	1000 to 10000 nM	–
CC(C)(C)NC(=O)Nc1cccc(C2(F)CCN(CCOc3ccccc3)CC2)c1 [Example 19, 1-tert-Butyl-3-{3-[4-fluoro-1-(2-phenoxyethyl)-piperidin-4-yl]phenyl}-urea]	1000 to 10000 nM	–
Cc1ccc(S(=O)(=O)Nc2cccc(C3(F)CCN(CCOc4ccccc4)CC3)c2)cc1 [Example 17, N-{3-[4-Fluoro-1-(2-phenoxyethyl)piperidin-4-yl]phenyl}-4-methyl-benzenesulfonamide Hydrochloride]	–	100 to 1000 nM
Oc1cccc(C2(F)CCN(CCCC3CCCCC3)CC2)c1 [Example 11, 1-(3-Cyclohexylpropyl)-4-fluoro-4-(3-hydroxyphenyl)piperidine Hydrochloride]	–	< 100 nM
CC1CN(CCOc2ccccc2)CCC1(F)c1cccc(O)c1 (centres unmarked) [Example 13, 4-fluoro-4-(3-Hydroxyphenyl)-3-methyl-1-(2-phenoxyethyl)piperidine Hydrochloride]	–	< 100 nM
CC1CN(CC(Cc2ccccc2)(Cc2ccccc2)C(=O)O)CCC1(F)c1cccc(O)c1 (centres unmarked) [Example 15, 2,2-Dibenzyl 3-[4-(3-hydroxyphenyl)-4-fluoro-3-methylpiperidin-1-yl]propionic Acid Hydrochloride]	–	< 100 nM
FC1(c2ccc(Cl)cc2)CCN(CCC(c2ccccc2)c2ccccc2)CC1 [Example 1, 4-(4-Chlorophenyl)-1-(3,3-diphenylpropyl)-4-fluoropiperidine Hydrochloride]	1000 to 10000 nM	–
O=C(O)C(Cc1ccccc1)(Cc1ccccc1)CN1CCC(F)(c2ccc(Cl)cc2)CC1 [Example 5, 2,2-Dibenzyl-3-[4-(4-chlorophenyl)-4-fluoropiperidin-1-yl]propionic acid Hydrochloride]	1000 to 10000 nM	–
